PMC7700746 (Bioorganic & medicinal chemistry letters, 2020)

Assays:
α4β1 integrin = α4β1 integrin (Homo sapiens, UniProt P05556+P13612); settings: cited from earlier work
αvβ1 integrin = αvβ1 integrin (UniProt G3HZ55+P06756); test: Cell adhesion assay, CHOαv adhering to fibronectin; type: cell-based
α5β1 integrin = α5β1 integrin (Homo sapiens, UniProt P05556+P08648); test: Cell adhesion assay, SW480 plated on fibronectin; type: cell-based; settings: for improvement of potency against α5β1 integrin: cell adhesion, versus alkyl-linker compounds
αvβ3 integrin = αvβ3 integrin (Homo sapiens, UniProt P05106+P06756); test: Cell adhesion assay, SW480 transfected with human β3 adhering to fibrinogen; type: cell-based
Solubility = type: physicochemical
Caco-2 cell = Caco-2 cell permeability assay; type: in vitro ADME

Sequence of α5β1 integrin (P08648 42-894 limits assumed): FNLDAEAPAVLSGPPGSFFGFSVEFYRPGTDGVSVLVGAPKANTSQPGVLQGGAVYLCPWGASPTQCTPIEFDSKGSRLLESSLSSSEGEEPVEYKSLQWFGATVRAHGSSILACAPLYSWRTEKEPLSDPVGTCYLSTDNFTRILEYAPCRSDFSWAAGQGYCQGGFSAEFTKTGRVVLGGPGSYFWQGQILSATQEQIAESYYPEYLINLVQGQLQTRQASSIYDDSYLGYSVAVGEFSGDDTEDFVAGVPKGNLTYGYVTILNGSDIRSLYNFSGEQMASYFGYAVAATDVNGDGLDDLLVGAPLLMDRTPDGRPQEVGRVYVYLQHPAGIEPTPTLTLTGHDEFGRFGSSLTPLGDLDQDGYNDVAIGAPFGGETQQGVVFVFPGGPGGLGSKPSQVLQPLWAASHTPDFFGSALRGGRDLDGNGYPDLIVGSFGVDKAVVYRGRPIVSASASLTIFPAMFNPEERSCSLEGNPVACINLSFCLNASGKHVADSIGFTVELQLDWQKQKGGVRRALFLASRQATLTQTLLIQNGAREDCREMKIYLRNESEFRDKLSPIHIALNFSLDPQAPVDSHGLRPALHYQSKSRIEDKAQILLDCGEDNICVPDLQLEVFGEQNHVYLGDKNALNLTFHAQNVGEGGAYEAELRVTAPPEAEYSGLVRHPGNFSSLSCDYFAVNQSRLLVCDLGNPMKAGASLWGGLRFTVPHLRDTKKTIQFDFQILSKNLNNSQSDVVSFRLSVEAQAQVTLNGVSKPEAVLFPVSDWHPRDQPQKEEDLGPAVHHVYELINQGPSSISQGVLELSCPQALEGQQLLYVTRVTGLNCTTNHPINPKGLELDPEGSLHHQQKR
Sequence of α5β1 integrin (P08648 895-1049 partner limits assumed): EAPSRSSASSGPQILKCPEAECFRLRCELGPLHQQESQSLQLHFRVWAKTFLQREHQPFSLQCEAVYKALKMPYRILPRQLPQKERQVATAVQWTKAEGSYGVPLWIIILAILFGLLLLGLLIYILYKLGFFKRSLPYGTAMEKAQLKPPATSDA
Sequence of α5β1 integrin (P05556 21-798): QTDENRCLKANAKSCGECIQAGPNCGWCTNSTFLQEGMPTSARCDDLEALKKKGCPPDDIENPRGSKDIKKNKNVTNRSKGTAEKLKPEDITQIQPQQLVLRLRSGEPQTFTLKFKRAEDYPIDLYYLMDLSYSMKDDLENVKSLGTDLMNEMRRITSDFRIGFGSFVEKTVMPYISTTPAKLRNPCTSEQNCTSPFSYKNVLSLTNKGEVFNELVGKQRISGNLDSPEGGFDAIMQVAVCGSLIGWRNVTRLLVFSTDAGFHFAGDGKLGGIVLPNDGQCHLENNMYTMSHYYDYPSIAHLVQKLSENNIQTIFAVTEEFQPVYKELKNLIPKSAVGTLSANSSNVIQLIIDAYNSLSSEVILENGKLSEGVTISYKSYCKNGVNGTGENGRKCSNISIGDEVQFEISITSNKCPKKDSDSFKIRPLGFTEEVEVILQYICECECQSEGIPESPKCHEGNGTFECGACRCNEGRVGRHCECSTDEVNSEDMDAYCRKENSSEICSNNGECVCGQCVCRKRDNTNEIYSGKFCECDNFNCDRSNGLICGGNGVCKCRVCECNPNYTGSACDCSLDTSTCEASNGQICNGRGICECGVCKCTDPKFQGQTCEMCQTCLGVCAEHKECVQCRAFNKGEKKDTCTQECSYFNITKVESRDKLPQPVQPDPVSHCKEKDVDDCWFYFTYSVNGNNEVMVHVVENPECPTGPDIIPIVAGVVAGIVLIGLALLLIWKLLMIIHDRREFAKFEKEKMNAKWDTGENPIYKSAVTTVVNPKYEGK
Sequence of αvβ3 integrin (P06756 31-889 limits assumed): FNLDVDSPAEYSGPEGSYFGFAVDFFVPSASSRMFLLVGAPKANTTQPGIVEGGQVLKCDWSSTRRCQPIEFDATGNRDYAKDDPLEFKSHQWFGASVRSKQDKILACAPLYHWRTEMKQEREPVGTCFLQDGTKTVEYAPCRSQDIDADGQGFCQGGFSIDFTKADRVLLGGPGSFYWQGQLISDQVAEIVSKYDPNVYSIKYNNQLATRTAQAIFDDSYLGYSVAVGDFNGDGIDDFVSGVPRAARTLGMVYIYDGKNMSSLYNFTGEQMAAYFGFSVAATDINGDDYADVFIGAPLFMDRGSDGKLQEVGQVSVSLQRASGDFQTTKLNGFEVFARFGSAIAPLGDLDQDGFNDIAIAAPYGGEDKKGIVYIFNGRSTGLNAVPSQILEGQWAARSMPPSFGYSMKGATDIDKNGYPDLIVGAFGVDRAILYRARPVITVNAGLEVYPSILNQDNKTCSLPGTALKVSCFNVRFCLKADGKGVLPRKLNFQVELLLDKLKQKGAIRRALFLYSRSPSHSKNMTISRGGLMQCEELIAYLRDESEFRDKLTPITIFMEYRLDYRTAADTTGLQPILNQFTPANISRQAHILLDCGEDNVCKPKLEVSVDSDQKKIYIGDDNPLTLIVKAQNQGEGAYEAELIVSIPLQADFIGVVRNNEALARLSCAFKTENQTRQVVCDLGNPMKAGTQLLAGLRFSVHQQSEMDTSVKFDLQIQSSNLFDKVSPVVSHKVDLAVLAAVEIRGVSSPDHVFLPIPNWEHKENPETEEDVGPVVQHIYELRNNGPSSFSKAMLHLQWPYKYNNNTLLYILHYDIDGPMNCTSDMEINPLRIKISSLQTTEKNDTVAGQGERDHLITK
Sequence of αvβ3 integrin (P06756 891-1048 partner limits assumed): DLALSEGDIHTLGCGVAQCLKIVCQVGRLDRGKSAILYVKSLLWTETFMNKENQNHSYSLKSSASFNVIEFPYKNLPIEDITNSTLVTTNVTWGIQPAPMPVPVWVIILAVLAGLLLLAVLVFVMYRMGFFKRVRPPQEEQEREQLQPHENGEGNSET
Sequence of αvβ3 integrin (P05106 27-788): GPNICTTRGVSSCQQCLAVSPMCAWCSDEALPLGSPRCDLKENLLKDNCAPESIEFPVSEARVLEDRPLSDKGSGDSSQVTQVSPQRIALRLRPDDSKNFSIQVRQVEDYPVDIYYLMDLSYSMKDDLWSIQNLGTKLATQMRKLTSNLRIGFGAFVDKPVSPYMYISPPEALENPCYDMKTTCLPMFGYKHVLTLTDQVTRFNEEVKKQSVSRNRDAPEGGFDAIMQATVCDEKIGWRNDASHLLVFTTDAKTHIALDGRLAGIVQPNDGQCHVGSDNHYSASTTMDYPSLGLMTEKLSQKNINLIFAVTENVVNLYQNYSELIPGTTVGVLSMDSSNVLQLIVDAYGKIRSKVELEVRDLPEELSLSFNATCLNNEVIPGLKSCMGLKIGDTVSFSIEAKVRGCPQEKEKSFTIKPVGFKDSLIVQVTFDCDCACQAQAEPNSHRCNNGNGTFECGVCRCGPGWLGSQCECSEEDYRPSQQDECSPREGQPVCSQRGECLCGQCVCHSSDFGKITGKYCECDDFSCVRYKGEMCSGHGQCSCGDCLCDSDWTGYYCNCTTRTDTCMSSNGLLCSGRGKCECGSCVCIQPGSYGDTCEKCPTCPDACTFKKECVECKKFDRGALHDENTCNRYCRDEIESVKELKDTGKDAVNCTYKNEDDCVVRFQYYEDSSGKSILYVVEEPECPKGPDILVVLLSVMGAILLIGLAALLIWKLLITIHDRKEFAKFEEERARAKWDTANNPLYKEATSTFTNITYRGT
Sequence of αvβ1 integrin (P06756 31-889 limits assumed): as the sequence (P06756 31-889 limits assumed) above
Sequence of αvβ1 integrin (P06756 891-1048 limits assumed): as the sequence (P06756 891-1048 partner limits assumed) above
Sequence of αvβ1 integrin (G3HZ55 21-798): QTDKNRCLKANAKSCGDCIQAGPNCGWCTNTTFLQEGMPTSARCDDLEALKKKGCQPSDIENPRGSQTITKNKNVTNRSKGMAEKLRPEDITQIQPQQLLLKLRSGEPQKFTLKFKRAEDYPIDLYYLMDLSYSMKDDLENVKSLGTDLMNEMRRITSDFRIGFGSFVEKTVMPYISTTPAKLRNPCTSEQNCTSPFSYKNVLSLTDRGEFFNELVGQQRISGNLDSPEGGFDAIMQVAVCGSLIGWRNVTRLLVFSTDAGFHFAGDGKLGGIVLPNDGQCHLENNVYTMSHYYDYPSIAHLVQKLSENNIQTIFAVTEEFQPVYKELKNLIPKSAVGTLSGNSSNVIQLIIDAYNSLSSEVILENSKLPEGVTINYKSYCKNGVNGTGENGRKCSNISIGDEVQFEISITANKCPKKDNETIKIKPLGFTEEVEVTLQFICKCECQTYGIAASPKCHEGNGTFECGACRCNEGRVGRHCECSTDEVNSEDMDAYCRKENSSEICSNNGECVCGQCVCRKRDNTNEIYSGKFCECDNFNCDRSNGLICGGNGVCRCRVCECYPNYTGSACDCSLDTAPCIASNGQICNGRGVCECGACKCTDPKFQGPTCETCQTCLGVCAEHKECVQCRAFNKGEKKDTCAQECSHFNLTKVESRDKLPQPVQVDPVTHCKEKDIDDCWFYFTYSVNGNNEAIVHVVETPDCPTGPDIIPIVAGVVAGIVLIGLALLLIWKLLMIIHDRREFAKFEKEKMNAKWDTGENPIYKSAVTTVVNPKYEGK

| SMILES | potency against αvβ1 integrin in cell adhesion assay (in words) (αvβ1 integrin) | potency against α5β1 integrin in cell adhesion assay (in words) (α5β1 integrin) | selectivity against αvβ3 integrin in cell adhesion assay (in words) (αvβ3 integrin) | improvement of potency against α5β1 integrin (α5β1 integrin) | solubility (in words) (Solubility) | permeability in Caco-2 cell assay (in words) (Caco-2 cell) | selectivity against α4β1 integrin (in words) (α4β1 integrin) |
| --- | --- | --- | --- | --- | --- | --- | --- |
| N=C(N)NCCCCC(=O)Nc1ccc(C[C@H](NC(=O)[C@@H]2CCCN2S(=O)(=O)c2ccccc2)C(=O)O)cc1 [Compound 4] |  |  |  |  |  |  | marginal selectivity |
| N=C(N)NCCCCCNC(=O)NC[C@H](NC(=O)[C@@H]1CCCN1S(=O)(=O)c1ccccc1)C(=O)O [Compound 5] | sub-nanomolar potency | sub-micromolar IC50 | excellent selectivity |  |  |  |  |
| N=C(N)Nc1cccc(C(=O)NCC(=O)NC[C@H](NC(=O)[C@@H]2CCCN2S(=O)(=O)c2ccccc2)C(=O)O)c1 [Compound 11] |  |  | not still satisfactory | more than 10 fold |  |  |  |

More lines, main results first:

| potency against αvβ1 integrin in cell adhesion assay (in words) (αvβ1 integrin) | potency against α5β1 integrin in cell adhesion assay (in words) (α5β1 integrin) | selectivity against αvβ3 integrin in cell adhesion assay (in words) (αvβ3 integrin) | improvement of potency against α5β1 integrin (α5β1 integrin) | solubility (in words) (Solubility) | permeability in Caco-2 cell assay (in words) (Caco-2 cell) | SMILES | selectivity against α4β1 integrin (in words) (α4β1 integrin) |
| --- | --- | --- | --- | --- | --- | --- | --- |
|  |  | not still satisfactory | more than 10 fold |  |  | N=C(N)Nc1cccc(C(=O)NNC(=O)NC[C@H](NC(=O)[C@@H]2CCCN2S(=O)(=O)c2ccccc2)C(=O)O)c1 [Compound 12] |  |
| sub-nanomolar potency | excellent nanomolar potency | great selectivity |  | limited solubility | poor permeability | N=C(N)Nc1cc(NC(=O)CCCNC(=O)C23CC4CC(CC(C4)C2)C3)cc(C(=O)NCC(=O)NC[C@H](NC(=O)[C@@H]2CCCN2S(=O)(=O)c2ccccc2)C(=O)O)c1 [Compound 15] |  |
